According to publication PMC9718795, “Caffeic acid N-[3,5-bis(trifluoromethyl)phenyl] amide as a non-steroidal inhibitor for steroid 5α-reductase type 1 using a human keratinocyte cell-based assay and molecular dynamics” (Scientific Reports, 2022):

Legend:
[1] = test system: SRD5A1 protein expression; assay: Western blot of SRD5A1 protein expression in HaCaT cells; assay type: cell-based, human
Experimental: HaCaT cells (1 × 10^5 cells/well in 6-well plates) were cultured in DMEM with or without compound 4 (0–2.5 µM) for 12 and 24 h. The cells were lysed with RIPA buffer containing 1% protease inhibitor and 1% phosphatase inhibitor on ice for 45 min. Then, the total protein from each sample was determined by bicinchoninic acid (BCA) protein assay kit (Cat No. 23225, Thermo Fisher Scientific, Rockford, IL, USA). The equal amount (40 µg) of protein sample was mixed with loading buffer and heated at 95 °C for 5 min before loaded to 10% sodium dodecyl sulfate–polyacrylamide gels (SDS-PAGE). The proteins were transferred onto PVDF membrane, which was further blocked with 5% BSA in TBST (25 mmol/L Tris–HCl; pH 7.4, 125 mmol/L NaCl, 0.1% Tween 20) at room temperature for 1 h. The primary antibody specific to SRD5A1 (1TFS-AB-PA575919, Thermo Fisher Scientific, Rockford, IL, USA) in dilution 1:1000 was added onto the membrane and incubated overnight at 4 °C. Then the membrane was washed 3 times × 7 min with TBST following with the immersion in the specific secondary antibody conjugated with horseradish peroxidase (HRP) for 1 h at room temperature. The signal of target protein was determined by using chemiluminescence HRP substrate (Thermo Scientific, Rockford, IL, USA) and the intensity of target protein was analyzed by analyst/PC densitometric software (Bio-Rad, Hercules, CA, USA).

HaCaTs-produced SRD5A1 = target: T1, HaCaTs-produced SRD5A1 (Homo sapiens, UniProt P18405); assay: Whole-cell-based kinetic study of HaCaT-produced SRD5A1 with HPTLC; set-up: Apparent Vmax: unit not given here; settings: 12 h
T1 construct: HaCaTs-produced SRD5A1 smoothly converted testosterone to DHT; endogenous in cells; host or cells: HaCaT human keratinocytes
T1 sequence (P18405 1-259): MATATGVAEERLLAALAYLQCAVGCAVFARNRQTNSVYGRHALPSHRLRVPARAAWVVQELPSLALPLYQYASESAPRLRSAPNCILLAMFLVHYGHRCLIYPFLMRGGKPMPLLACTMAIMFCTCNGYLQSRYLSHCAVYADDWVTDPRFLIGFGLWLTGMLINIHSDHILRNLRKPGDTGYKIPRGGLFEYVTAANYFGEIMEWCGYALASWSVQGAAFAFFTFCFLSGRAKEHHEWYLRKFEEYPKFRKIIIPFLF
Experimental: The in vitro whole HaCaT cell-based assay for the kinetic inhibition against SRD5A1 included culturing the cells for 48 h, treating the cells with testosterone and compound 4 for 12 h and evaluating the % intensity of DHT and cell viability using HPTLC analysis and MTT assay, respectively. The HaCaT cells were seeded and incubated as same as the method shown in 3.8. For the evaluation of dose-dependent activity of testosterone, the different concentration of testosterone (0 − 50 μM) and DMEM with 0.1% DMSO were added. […] DMEM with 0.1% DMSO was used as negative control. Then, the cells were incubated for 12 h. The collection of cell culture medium, extraction process, sample preparation and HPTLC detection were prepared by the method mentioned above (3.8). The obtaining chromatogram was visualized by CAMAG HPTLC Software vision CATS and analyzed by Image J software. The percentage of DHT intensity was calculated based on the intensity of DHT normalized by the standard of DHT at 100 μM. At the same time, the cell viability of the treated cells was assessed by the MTT assay. Each experiment was repeated in triplicate.

[2] = Cell viability (MTT) run in parallel with the HaCaT-based SRD5A1 inhibitory assay; set-up: species or system human; settings: human, HaCaT cells, HaCaT, 24 h
[3] = test system: dermal papilla (DP) cells; assay: In vitro cytotoxic MTT assay against DP cells; assay type: cell-based, human; settings: 0.5–50 µM, 24 h
Experimental: (§1) The cytotoxicity of caffeic acid and its amide derivatives were evaluated with two cell lines, human keratinocyte (HaCaT) and DP cells, using the common cell viability assay with MTT. HaCaT and DP cells were seeded at 1 × 10^4 cell/well in 96-well plates in a complete DMEM medium, incubated overnight, and treated with test compounds at 0–50 µM for 24 h. The stock solutions of all the test compounds were prepared in DMSO. Each compound was serially diluted in DMEM to achieve concentrations at 0.5–50 µM; DMEM was used as the negative control. After 24 h of treatment, the culture medium was removed, and cell viability was determined by adding 100 µL of 0.5 mg/mL MTT at 37 °C in darkness for 3 h. After removing the MTT solution, 100 µL of DMSO was added to each well to dissolve the purple formazan crystals. The absorbance was measured at 570 nm using a microplate reader, and the IC50 value was calculated. Each experiment was performed in triplicates.

[4] = In vitro cytotoxic MTT assay against HaCaT cells; assay type: cell-based, human; settings: human, HaCaT cells (human keratinocytes), read-out: Cytotoxicity IC50 against HaCaTs
Experimental: as §1

SRD5A1 mRNA = SRD5A1 mRNA level by RT-qPCR in HaCaT cells; assay type: cell-based, human; settings: 0.5, 1 and 2.5 µM; 12 h and 24 h
Experimental: HaCaT cells (2 × 10^5 cells/well in 6 well-plates) were treated with compound 4 (0, 0.5, 1 and 2.5 µM) for 12 and 24 h. Then, total RNA was extracted by using Purelink RNA mini purification kit. The isolated RNA was purified by DNase I and further used as a template for synthesis of cDNA using RevertAid First Stand cDNA Synthesis Kit. Quantitative real-time PCR (RT-qPCR) was performed with a C100 Thermal Cycler (Bio-Rad CFX384 real-time pcr system) using Luna Universal qPCR Master Mix (M3003). Specific forward and reverse primers of the interested gene was indicated as following.
The reactions were incubated for 39 cycles of 95 °C for 5 s, 60 °C for 30 s and 65 °C for 5 s. The expression of target mRNA was determined as the relative comparison via the ΔCt method. The threshold (Ct) of target genes were normalized with GAPDH (Ct) values.

SMILES: O=C(C=Cc1ccc(O)c(O)c1)Nc1cc(C(F)(F)F)cc(C(F)(F)F)c1 [Compound 4, 3-(3,4-dihydroxyphenyl)-N-[3,5-bis (trifluoromethyl)phenyl]-2-propenamide]
- Suppression of SRD5A1 protein expression relative to untreated control ([1]; 2.5 µM, 24 h): > 50%
- SRD5A1 protein expression relative to control ([1]; 1 and 2.5 µM, 24 h): significant decrease
- SRD5A1 protein level relative to control ([1]; 12 h): no significant changes
- Apparent Vmax (HaCaTs-produced SRD5A1; compound 4 0.2 µM): 96.08
- Apparent Vmax (HaCaTs-produced SRD5A1; compound 4 0.5 µM): 76.27
- Apparent Vmax (HaCaTs-produced SRD5A1; compound 4 1.0 µM): 74.06
- Apparent Vmax (HaCaTs-produced SRD5A1; compound 4 2.5 µM): 69.85
- Ki (HaCaTs-produced SRD5A1; mixed-model inhibition analysis, non-linear): 2380 nM
- % DHT intensity ± S.D. (HaCaTs-produced SRD5A1; testosterone 1 µM, compound 4 0.2 µM): 0.83 ± 0.219%
- % DHT intensity ± S.D. (HaCaTs-produced SRD5A1; testosterone 1 µM, compound 4 0.5 µM): 0.70 ± 0.16%
- % DHT intensity ± S.D. (HaCaTs-produced SRD5A1; testosterone 1 µM, compound 4 1.0 µM): 0.12 ± 0.01%
- % DHT intensity ± S.D. (HaCaTs-produced SRD5A1; testosterone 1 µM, compound 4 2.5 µM): 0.13 ± 0.03%
- % DHT intensity ± S.D. (HaCaTs-produced SRD5A1; testosterone 5 µM, compound 4 0.2 µM): 29.00 ± 1.829%
- % DHT intensity ± S.D. (HaCaTs-produced SRD5A1; testosterone 5 µM, compound 4 0.5 µM): 44.57 ± 9.66%
- % DHT intensity ± S.D. (HaCaTs-produced SRD5A1; testosterone 5 µM, compound 4 1.0 µM): 34.49 ± 3.82%
- % DHT intensity ± S.D. (HaCaTs-produced SRD5A1; testosterone 5 µM, compound 4 2.5 µM): 0.31 ± 0.04%
- % DHT intensity ± S.D. (HaCaTs-produced SRD5A1; testosterone 10 µM, compound 4 0.2 µM): 48.11 ± 5.339%
- % DHT intensity ± S.D. (HaCaTs-produced SRD5A1; testosterone 10 µM, compound 4 0.5 µM): 23.04 ± 2.83%
- % DHT intensity ± S.D. (HaCaTs-produced SRD5A1; testosterone 10 µM, compound 4 1.0 µM): 27.21 ± 2.98%
- % DHT intensity ± S.D. (HaCaTs-produced SRD5A1; testosterone 10 µM, compound 4 2.5 µM): 30.48 ± 5.08%
- % DHT intensity ± S.D. (HaCaTs-produced SRD5A1; testosterone 25 µM, compound 4 0.2 µM): 86.19 ± 4.08%
- % DHT intensity ± S.D. (HaCaTs-produced SRD5A1; testosterone 25 µM, compound 4 0.5 µM): 71.91 ± 2.00%
- % DHT intensity ± S.D. (HaCaTs-produced SRD5A1; testosterone 25 µM, compound 4 1.0 µM): 68.49 ± 0.95%
- % DHT intensity ± S.D. (HaCaTs-produced SRD5A1; testosterone 25 µM, compound 4 2.5 µM): 46.20 ± 0.91%
- % DHT intensity ± S.D. (HaCaTs-produced SRD5A1; testosterone 50 µM, compound 4 0.2 µM): 90.49 ±10.32%
- % DHT intensity ± S.D. (HaCaTs-produced SRD5A1; testosterone 50 µM, compound 4 0.5 µM): 72.72 ± 12.38%
- % DHT intensity ± S.D. (HaCaTs-produced SRD5A1; testosterone 50 µM, compound 4 1.0 µM): 65.61 ± 2.06%
- % DHT intensity ± S.D. (HaCaTs-produced SRD5A1; testosterone 50 µM, compound 4 2.5 µM): 55.01 ± 2.40%
- Mode of SRD5A1 inhibition (HaCaTs-produced SRD5A1; whole-cell): mixed inhibition
- viability at 24 h, 1 µM ([2]; compound 1.0 µM, read-out: % Cell viability ± SD): 88%
- viability at 24 h, 5 µM ([2]; compound 5 µM, read-out: Viability of treated cells): < 80%
- Toxicity against DP cells [3]: no toxicity
- IC50 at 24 h [4]: 30 ± 8.69 µM
- Effect on mRNA expression of SRD5A1 (SRD5A1 mRNA): did not affect
